Source: patent US20260152724A1, “SMALL INTESTINE EPITHELIUM-LIKE CELLS AND PRODUCTION METHOD THEREOF” (OSAKA UNIVERSITY, priority 2022, published 2026)
Where two headings read alike, the source gives them in different places. Values belong to the compound of their own block, whether it stands above or below them.

How the values were obtained:
[1] = system: definitive endoderm cells; test: Induction of differentiation from definitive endoderm cells into intestinal progenitor cells, marker gene expression by qRT-PCR (Example 1); format: cell-based, human; conditions: 4 days
Description: This Example examined a differentiation-inducing action in a culture system containing each concentration of retinoic acid or a GSK3β inhibitor, which was known to be important in differentiation from definitive endoderm. To induce differentiation from definitive endoderm cells into intestinal progenitor cells, the medium B shown in Reference Example 2 was used as a basal medium.
Then, RNAs were recovered and analyzed for gene expression levels of an intestinal progenitor cell marker CDX2, a hepatic progenitor cell marker AFP, and a pancreatic progenitor cell marker PDX1 by quantitative RT-PCR (qRT-PCR). The quantitative RT-PCR was performed according to a common method. Total RNAS were recovered and CDNAS were synthesized. Complementary DNAs (cDNAs) were subjected to qRT-PCR with Fast SYBR Green Master Mix (Applied Biosystems) and quantification with StepOnePlus Real time PCR system (Applied Biosystems). A glyceraldehyde 3-phosphate dehydrogenase (GAPDH) gene was used as an internal standard gene. In addition, each gene expression level of DMSO-treated groups, which were controls, was set to 1.0. Data was shown with n=3, mean±standard deviation, but n=2 for each LY (10 nM and 30 nM). A detection limit was represented by N.D.

CYP3A4 [2] = test: CYP3A4 activity of ELCs, P450-Glo CYP3A4 assay (Example 3); format: cell-based, human; conditions: PD 3 μM in medium C for 10 days, PD(+) versus PD(−); Luciferin-IPA substrate, corrected by protein per well
Description: (§1) Further, CYP3A4 activity was checked. The CYP3A4 activity was measured with P450-Glo™ CYP3A4 Assay Kits (Promega Corporation). […] The CYP3A4 activity was corrected by the amount of a protein per well measured with BCA Protein Assay Kit (Thermo Fisher Scientific Inc.).

[3] = system: intestinal progenitor cells; test: MEK inhibitor in differentiation from intestinal progenitor cells into ELCs, gene expression by qRT-PCR (Example 3); format: cell-based, human; conditions: PD 3 μM in medium C for 10 days, PD(+) versus PD(−); Conditions 2 and 3
Description: This Example investigated the action of a MEK inhibitor in a stage of inducing differentiation from intestinal progenitor cells into enterocyte-like cells (ELCs). PD0325901 (MedChemExpress LLC) was used as the MEK inhibitor. PD0325901 is sometimes abbreviated as PD in this Example and Examples described below. In a step from definitive endoderm cells to intestinal progenitor cells, culture e was performed under Conditions 2 and 3 shown in Table 3 in Example 2 according to the protocol illustrated in FIG. 3(1). […] Thus, the cells were induced to differentiate into enterocyte-like cells (ELCs). Subsequently, RNAs were recovered by the same procedure as in Example 1, and analyzed for each gene expression level of VIL1, CYP3A4, and MDR1 by qRT-PCR by the same method as in Example 2. Each gene expression level in an adult small intestine was set to 1.0. Data was shown with n=3, mean±standard deviation.

CYP3A4 [4] = test: Elimination of a humoral factor from medium K in ELC monolayer culture, CYP3A4 activity (Example 9)
Description: as §1
This Example investigated an influence of a humoral factor in ELC monolayer culture. […] In this Example, culture was performed with addition of the medium to only an upper stage A in a cell culture insert (Corning Incorporated) used in monolayer culture (FIG. 9(1)).

P-gp = test: Elimination of a humoral factor from medium K in ELC monolayer culture, P-gp activity (Example 9); format: cell-based, human; conditions: ELC monolayer (day 27 2D K), 6 days in medium K without the factor; digoxin substrate
Description: P-gp is an efflux transporter, and its activity was measured by allowing 1 μM digoxin to act through use of digoxin, [^3H (G)]-(PerkinElmer) and digoxin (Asahi Kasei Corporation) as substrate compounds, and allowing 100 μM verapamil to act as an inhibitor.

[5] = RA at each concentration (3, 10, 20, 30 μM) in medium B, DMSO-treated group = 1.0

Compound: Cc1c[nH]c(-c2cnc(NCCNc3ccc(C#N)cn3)nc2-c2ccc(Cl)cc2Cl)n1 [CHIR, CHIR99021]
expression of CDX2 ([1]; CHIR at 10 μM (of 3, 10, 20 μM) in medium B): highest expression
expression of AFP ([1]; CHIR at 10 μM in medium B): low expressions
expression of PDX1 ([1]; CHIR at 10 μM in medium B): low expressions

Compound: O=C1NC(=O)C(c2cnc3ccccn23)=C1c1cn2c3c(cc(F)cc13)CN(C(=O)N1CCCCC1)CC2 [LY, LY2090314]
expression of CDX2 ([1]; LY at 20 nM (of 3, 10, 20, 30 nM) in medium B): highest expression
expression of AFP (hepatic progenitor cell marker) ([1]; LY at 20 nM in medium B): low expressions
expression of PDX1 ([1]; LY at 20 nM in medium B): low expressions

CYP3A4 activity (CYP3A4 [2]): clearly higher value
gene expression level of CYP3A4 [3]: clearly higher values
CYP3A4 activity on elimination of the factor from medium K (CYP3A4 [4]): greatly decreased
Compound: O=C(NOC[C@H](O)CO)c1ccc(F)c(F)c1Nc1ccc(I)cc1F [PD, PD0325901]
gene expression level of MDR1 [3]: clearly higher values

Compound: CC1=C(/C=C/C(C)=C/C=C/C(C)=C/C(=O)O)C(C)(C)CCC1 [RA, all-trans-Retinoic Acid]
expression level of CDX2 (intestinal progenitor cell marker) [1, 5]: high expression levels
expression level of PDX1 (pancreatic progenitor cell marker) [1, 5]: high expression levels

CYP3A4 activity on elimination of the factor from medium K (CYP3A4 [4]): significantly increased
Compound: NC(=O)c1ccc(-c2nc(-c3ccc4c(c3)OCO4)c(-c3ccccn3)[nH]2)cc1 [SB431542]

Compound: C=C1/C(=C\C=C2/CCC[C@]3(C)[C@@H]([C@H](C)CCCC(C)(C)O)CC[C@@H]23)C[C@@H](O)C[C@@H]1O [Vitamin D3, 1α,25-Dihydroxyvitamin D3]
CYP3A4 activity on elimination of the factor from medium K (CYP3A4 [4]; ELC monolayer (day 27 2D K), 6 days in medium K without the factor): greatly decreased

Compound: EGF: Epidermal growth factor, component of medium K
CYP3A4 activity on elimination of the factor from medium K (CYP3A4 [4]): significantly increased
P-gp activity on elimination of the factor from medium K (P-gp): no influence
